Source: ChEMBL document CHEMBL1201862, “PubChem BioAssay data set” (2004)
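Step 1: Grow cells in 96-well plates. Step 2: Expose to compound for 48 hours at 5 concentrations. Step 3: Interpolate endpoints linearly; if unreached, use highest concentration. GI50: concentration for 50% inhibition of growth.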 Activity calls are given as the source filed them. No stated cut-off is given here; in the data, active = GI50 up to about 1.1 µM and inactive = higher.

Tests used:
Assay in all cases: growth of human tumour cells (NCI), 48 h
SNB-75 = tested on: SNB-75
MDA-N = tested on: MDA-N
NCI-H460 = tested on: NCI-H460
SF-295 = tested on: SF-295
A498 = tested on: A498
SK-MEL-2 = tested on: SK-MEL-2
KM12 = tested on: KM12
HOP-62 = tested on: HOP-62
OVCAR-3 = tested on: OVCAR-3
LOX IMVI = tested on: LOX IMVI
M14 = tested on: M14
K562 = tested on: K562
UO-31 = tested on: UO-31
Hs-578T = tested on: Hs-578T
U-251 = tested on: U-251
PC-3 = tested on: PC-3
BT-549 = tested on: BT-549
MDA-MB-231 = tested on: MDA-MB-231
NCI-H23 = tested on: NCI-H23
MOLT-4 = tested on: MOLT-4
SK-MEL-5 = tested on: SK-MEL-5
NCI/ADR-RES = tested on: NCI/ADR-RES
SN12C = tested on: SN12C
HCC 2998 = tested on: HCC 2998
SK-MEL-28 = tested on: SK-MEL-28
NCI-H522 = tested on: NCI-H522
T47D = tested on: T47D
HT-29 = tested on: HT-29
UACC-257 = tested on: UACC-257
SR = tested on: SR
DU-145 = tested on: DU-145
UACC-62 = tested on: UACC-62
COLO 205 = tested on: COLO 205
MCF7 = tested on: MCF7
OVCAR-5 = tested on: OVCAR-5
786-0 = tested on: 786-0
MDA-MB-435 = tested on: MDA-MB-435
EKVX = tested on: EKVX
SF-539 = tested on: SF-539
RXF 393 = tested on: RXF 393
CCRF-CEM = tested on: CCRF-CEM
OVCAR-4 = tested on: OVCAR-4
CAKI-1 = tested on: CAKI-1
OVCAR-8 = tested on: OVCAR-8
ACHN = tested on: ACHN
HCT-15 = tested on: HCT-15
HOP-92 = tested on: HOP-92
HCT-116 = tested on: HCT-116
SNB-19 = tested on: SNB-19
NCI-H226 = tested on: NCI-H226
TK-10 = tested on: TK-10
A549 = tested on: A549
SF-268 = tested on: SF-268
Malme-3M = tested on: Malme-3M
HL-60 = tested on: HL-60
SW-620 = tested on: SW-620
SK-OV-3 = tested on: SK-OV-3
IGROV-1 = tested on: IGROV-1
RPMI-8226 = tested on: RPMI-8226

CCOC(=O)C(NC(=O)N(C1=NCC(C)S1)C1CCCCC1)(OC)C(F)(F)F (stereo not given)
GI50 (SNB-75): 31 µM (inactive) | GI50 (MDA-N): 30.9 µM (inactive) | GI50 (NCI-H460): 35.4 µM (inactive) | GI50 (SF-295): 49.8 µM (inactive) | GI50 (A498): 16.4 µM (inactive) | GI50 (SK-MEL-2): 34 µM (inactive) | GI50 (KM12): 33 µM (inactive) | GI50 (HOP-62): 15.8 µM (inactive) | GI50 (OVCAR-3): 24.3 µM (inactive) | GI50 (LOX IMVI): 19.7 µM (inactive) | GI50 (M14): 51.2 µM (inactive) | GI50 (K562): 56.9 µM (inactive) | GI50 (UO-31): 52 µM (inactive) | GI50 (Hs-578T): 42.5 µM (inactive) | GI50 (U-251): 22.6 µM (inactive) | GI50 (PC-3): 30.8 µM (inactive) | GI50 (BT-549): 32.3 µM (inactive) | GI50 (MDA-MB-231): 46.5 µM (inactive) | GI50 (NCI-H23): 43.3 µM (inactive) | GI50 (MOLT-4): 37.8 µM (inactive) | GI50 (SK-MEL-5): 23.8 µM (inactive) | GI50 (NCI/ADR-RES): 65.5 µM (inactive) | GI50 (SN12C): 15.1 µM (inactive) | GI50 (HCC 2998): 43.9 µM (inactive) | GI50 (SK-MEL-28): 47.2 µM (inactive) | GI50 (NCI-H522): 27.7 µM (inactive) | GI50 (T47D): 32.5 µM (inactive) | GI50 (HT-29): 20.7 µM (inactive) | GI50 (UACC-257): 56.5 µM (inactive) | GI50 (SR): 39.6 µM (inactive) | GI50 (DU-145): 36.2 µM (inactive) | GI50 (UACC-62): 32.8 µM (inactive) | GI50 (COLO 205): 23.2 µM (inactive) | GI50 (MCF7): 23.4 µM (inactive) | GI50 (OVCAR-5): > 100 µM (inactive) | GI50 (786-0): 15.5 µM (inactive) | GI50 (MDA-MB-435): 32.2 µM (inactive) | GI50 (EKVX): 34.8 µM (inactive) | GI50 (SF-539): 32.3 µM (inactive) | GI50 (RXF 393): 17.9 µM (inactive) | GI50 (CCRF-CEM): 25.2 µM (inactive) | GI50 (OVCAR-4): 40.3 µM (inactive) | GI50 (CAKI-1): 34.6 µM (inactive) | GI50 (OVCAR-8): 70.5 µM (inactive) | GI50 (ACHN): 31.2 µM (inactive) | GI50 (HCT-15): 30.1 µM | GI50 (HOP-92): 46 µM (inactive) | GI50 (HCT-116): 31.6 µM (inactive) | GI50 (SNB-19): 49.3 µM (inactive) | GI50 (NCI-H226): 21.1 µM (inactive) | GI50 (TK-10): 57.5 µM (inactive) | GI50 (A549): 39.1 µM (inactive) | GI50 (SF-268): 32.6 µM (inactive) | GI50 (Malme-3M): 45.8 µM (inactive) | GI50 (HL-60): 30.2 µM (inactive) | GI50 (SW-620): 35.2 µM (inactive) | GI50 (SK-OV-3): 52.4 µM (inactive)

CCCCC[C@H]1CC=CC(=O)O1
GI50 (MDA-N): 5.02 µM (inactive) | GI50 (NCI-H460): 5.35 µM (inactive) | GI50 (SF-295): 10.4 µM (inactive) | GI50 (A498): 1.82 µM (inactive) | GI50 (SK-MEL-2): 5.43 µM (inactive) | GI50 (IGROV-1): 5.27 µM (inactive) | GI50 (KM12): 3.18 µM (inactive) | GI50 (HOP-62): 17.3 µM (inactive) | GI50 (OVCAR-3): 3.5 µM (inactive) | GI50 (LOX IMVI): 4.65 µM (inactive) | GI50 (M14): 11.5 µM (inactive) | GI50 (K562): 5.48 µM (inactive) | GI50 (UO-31): 11 µM (inactive) | GI50 (Hs-578T): 7.71 µM (inactive) | GI50 (U-251): 8.3 µM (inactive) | GI50 (PC-3): 7.93 µM (inactive) | GI50 (BT-549): 4.06 µM (inactive) | GI50 (MDA-MB-231): 10 µM (inactive) | GI50 (NCI-H23): 17.9 µM (inactive) | GI50 (MOLT-4): 2.34 µM (inactive) | GI50 (SK-MEL-5): 7.78 µM (inactive) | GI50 (NCI/ADR-RES): 5.92 µM (inactive) | GI50 (SN12C): 6.68 µM (inactive) | GI50 (HCC 2998): 4.25 µM (inactive) | GI50 (SK-MEL-28): 7.26 µM (inactive) | GI50 (NCI-H522): 2.78 µM (inactive) | GI50 (T47D): 4.55 µM (inactive) | GI50 (HT-29): 4.03 µM (inactive) | GI50 (UACC-257): 12.1 µM (inactive) | GI50 (SR): 2.03 µM (inactive) | GI50 (DU-145): 5.83 µM (inactive) | GI50 (UACC-62): 10.5 µM (inactive) | GI50 (COLO 205): 3.53 µM (inactive) | GI50 (MCF7): 4.89 µM (inactive) | GI50 (OVCAR-5): 24 µM (inactive) | GI50 (786-0): 3.1 µM (inactive) | GI50 (MDA-MB-435): 7.33 µM (inactive) | GI50 (EKVX): 17.1 µM (inactive) | GI50 (SF-539): 1.56 µM (inactive) | GI50 (RXF 393): 2.33 µM (inactive) | GI50 (CCRF-CEM): 4.74 µM (inactive) | GI50 (OVCAR-4): 5.7 µM (inactive) | GI50 (CAKI-1): 2.55 µM (inactive) | GI50 (OVCAR-8): 8.28 µM (inactive) | GI50 (ACHN): 7.13 µM (inactive) | GI50 (HCT-15): 4.2 µM | GI50 (HOP-92): 10.4 µM (inactive) | GI50 (HCT-116): 3.16 µM (inactive) | GI50 (SNB-19): 10.1 µM (inactive) | GI50 (RPMI-8226): 2.86 µM (inactive) | GI50 (NCI-H226): 4.13 µM (inactive) | GI50 (TK-10): 9.48 µM (inactive) | GI50 (A549): 5.86 µM (inactive) | GI50 (SF-268): 5.38 µM (inactive) | GI50 (Malme-3M): 15.5 µM (inactive) | GI50 (HL-60): 2.88 µM (inactive) | GI50 (SW-620): 3.41 µM (inactive) | GI50 (SK-OV-3): 10.8 µM (inactive)
